Experimental data from patent publication US6969590B2, “Use of a polypeptide for treatment of pruritus in animals” (Zengen, Inc., priority 2001, dated 2005).

What was measured:
[1] = system: inflammation induced in the hind paw; assay: Kappa carrageenan-induced hind paw inflammation, spinal cord intact or transected; assay type: in vivo, BALB/c mice; conditions: for inhibition of hind paw inflammation: central administration, spinal cord intact mice
Experimental: Because surgical dissection of trigeminal structures that innervate the ear of the mouse is very difficult, tests to learn whether descending neural pathways are essential to the anti-inflammatory activity of centrally administered α-MSH peptides were performed in mice with inflammation induced in a hind paw. In these experiments, each animal was anesthetized with pentobarbital sodium solution as above. Baseline footpad thickness of both hind paws was measured with a spring-loaded micrometer (Swiss Precision Instruments, Los Angeles, Calif.). Paw thickness was expressed in units of 10^−3 cm; average thickness of unstimulated paws was 171.5×10^−3 cm across shipments of animals. Kappa carrageenan (Sigma) dissolved in saline (0.05%, 20 μl) was injected (28 gauge allergy test syringe) into one footpad, and saline (20 μl) was injected into the other. For the analyses, the increase in thickness of the control saline-injected paw of each animal was subtracted from that of the carrageenan-injected paw, to eliminate the influence of mechanical injury and volume of the injected fluid. To be certain that mice with severed spinal cords can react to anti-inflammatory agents, prednisolone (2.5 mg/mouse (IP injection)) was administered to 10 mice with spinal transection and inflammation induced by carrageenan. Treatment with the locally acting steroid reduced swelling up to 29% (average, relative to saline controls) at 4.5 h. after carrageenan.
However, a standardized crushing of lumbar vertebrae with a hemostat was effective in severing the cord; no deaths were caused by this treatment. […] The experiments were limited to 4.5 h to reduce problems of bowel and bladder dysfunction. Immediately after the 4.5 h measurements all mice were killed with an overdose of sodium pentobarbital.
(§1) Because of the size of the experiments and the requirement for several shipments of animals over time, several experiments were performed, each with complete treatment and control groups drawn from the same shipment of mice. Omnibus analysis of variance techniques (Dynastat, Washington, D.C.) were used to test overall differences among group means. Tukey's protected t test was used to compare individual means. Probability values of <0.05 were considered significant.

TNF-α = TNF-α production by activated N9 microglia; assay type: cell-based, murine; conditions: microglia stimulated with LPS+IFN-γ for 24 hr, micromolar concentrations
Experimental: The N9 clone of murine microglial cells was obtained by immortalization of embryonic brain cultures with the 3RV retrovirus carrying an activated v-myconcogene. N9 cells were cultured in T-75-cm^2 culture flasks (Corning, Cambridge, Mass.) and maintained at 37° C. in a humidified incubator under 5% CO2 atmosphere in RPMI 1640 supplemented with 2 mM L-glutamine, 50 U/mL penicillin G, 50 μg/mL streptomycin sulfate (GIBCO-BBL, Paisley, UK), and 10% heat-inactivated fetal bovine serum (FBS, Hyclone Lab, Inc., Logan, Utah) until experiments were performed. Cells were used between the first and the tenth passage.
Sub-confluent microglial cells were washed twice with phosphate-buffered saline (PBS) and incubated with trypsin 0.025% and ethylenediaminetetraacetate (EDTA) 0.02% without calcium and magnesium for 3 min. at 37° C. to detach the cells from the culture flask. Cells were then resuspended in medium and incubated in 24-well tissue-culture plates at a concentration of 2×10^5 cells/mL for 16 h in a humidified incubator (37° C., 5% CO2). Growth medium was removed and cell monolayers were stimulated with 10 ng/mL lipopolysaccharide (LPS, from Escherichia coli 055:B5, Sigma Chemical Co., St. Louis, Mo.) plus 1 U/ml, murine IFN-γ (Sigma). To test effects of melanocortin peptides, concentrations (1, 10, 25, 50 and 100 μM) of α-MSH (1-13), α-MSH (11-13), and ACTH (1-24) (Sigma) were dissolved in medium and added to wells 10 min before treatment with LPS+IFN-γ. […] Viability of cells was assessed by trypan blue exclusion for each experimental condition; it was consistently >98%. […]
TNF-α bioactivity was measured in supernatants of cell cultures by standard cytotoxicity assay using L929 cells and recombinant human TNF-α (Sigma) as standard. […] IL-6 was measured using a commercial murine enzyme-linked immunosorbent assay (ELISA: RPN 2714, Amersham, Little Chalfont, UK).
Effects of melanocortin peptides on cytokine and NO production were evaluated by repeated measures analysis of variance followed by Dunnet's test for specific comparisons. […]

[2] = system: edema caused by intradermal injection of human recombinant IL-1β in the mouse ear; assay: Ear edema by intradermal recombinant human IL-1β; assay type: in vivo, BALB/c mice; conditions: centrally administered peptide, propranolol injected centrally
Experimental: Female BALB/c mice (Simonsen Laboratories, Gilroy, Calif.), 7-8 weeks old, were housed at 23-25° C. in groups not exceeding five animals per cage [28 cm (L)×18 cm (W)×13 cm (H)]. Before the experiments they were acclimatized for not less than 1 week before experimentation to standard lighting and temperature conditions with food and water freely available.
Mice were anesthetized with 10% pentobarbital sodium solution (1 mg/mouse, 50 mg/ml, Nembutal sodium solution; Abbott Laboratories, North Chicago, Ill.). Baseline ear thickness measurements were taken with a spring-loaded micrometer (Swiss Precision Instruments, Los Angeles, Calif.). Ear thickness was expressed in cubic centimeters and was measured at least twice at each time point. The average thickness of unstimulated ears was […]. Inflammation was induced by intradermal injection of 20 μl of recombinant human IL-1β (1500 U; Genzyme, Cambridge, Mass.) in one ear of each mouse using a 28 gauge needle (Hiltz et al., 1992). Measures of ear thickness were repeated 4 and 6 hr later, while the mice were under sodium pentobarbital anesthesia. Edema was assessed by subtracting baseline measures from 4 and 6 hr readings for each animal. α-MSH (11-13) (1663.9 gm/mol; Peninsula Laboratories, Belmont, Calif.) or α-MSH (11-13) (383.48 gm/mol; Peninsula Laboratories) dissolved in saline was injected intracerebroventricularly (20 μl) using procedures described previously (Lipton et al., 1991; Lipton and Catania, 1993).
Several agents were administered at the time of ear challenge to pharmacologically block certain receptors: atropine (Sigma Chemical Co.; 150 μg i.p.), a muscarinic receptor blocker that acts on autonomic end-organ receptors, was chosen because of links between inflammation and modulation of pain and the finding that muscarinic antagonists increase pain threshold (Hartvig et al., 1989); phentolamine (Sigma; 150 μg i.p.) an agent that competes for occupancy of α-adrenergic receptors; propranolol (Sigma; 150 μg, i.p.; 30 μg, i.c.v.), a nonspecific competitive antagonist for β-adrenergic receptors.
as §1

Sequence: SYSMEHFRWGKPV [α-MSH (1-13)]
- inhibition of hind paw inflammation ([1]; 3 h): 57%
- inhibition of hind paw inflammation ([1]; 4.5 h): 29%
- anti-inflammatory effect after spinal cord transection ([1]; centrally administered): significantly reduced the anti-inflammatory effect
- anti-inflammatory effect after spinal cord transection ([1]; given intraperitoneally): significant, although smaller, inhibitory effect later in the period
- reduction of production of TNF-α (TNF-α): 43%
- inhibition of ear edema ([2]; 4 hr): 36%
- inhibition of ear edema ([2]; 6 hr): 32%
